The nature of experiment [1]: Compound was tested for inhibition against Creatine kinase (CK).
Experiment [2] in a line: Compound was tested for inhibition against Creatine kinase(CK).

As a reminder, the Ki is a measure of affinity in units of concentration, obtained from inhibition or displacement. Read a low Ki as higher affinity. `N=C(CP(=O)(O)O)NCCC(=O)O` [Phosphocreatine analogue] had a Ki in experiment [1] of 37 mM.
Still for that read-out and setting: for `CN(CC(=O)O)C(=N)CP(=O)(O)O` [Phosphocreatine analogue] the value was 1.4 mM.
With `N=C(CP(=O)(O)O)NCC(=O)O` [Phosphocreatine analogue], the affinity in experiment [2] corresponds to a Ki of 5.7 mM.

The record behind these values is BindingDB's records for doi:10.1016/S0960-894X(97)00161-3 (1997).
